Assay results as given in patent publication US10927096B2, “Ester substituted ion channel blockers and methods for use” (Nocion Therapeutics, Inc., priority 2019, dated 2021).

Tests used:
[1] = molecular target: T1, NaV1.7 (Homo sapiens, UniProt Q15858); test: Automated patch clamp (Qube 384), internal block of NaV1.7 in HEK293 cells; format: cell-based; settings: compound in internal solution, read-out: NaV1.7 Intracellular Inhibition
T1 construct: expressed in transfected cells; host or cells: HEK293, tetracycline-inducible
Protocol: (§1) NaV1.7 was expressed in HEK293 cells upon induction with tetracycline. Cells were cultured in DMEM containing 10% dialyzed Fetal Bovine Serum (VWR, Radnor, Pa.), 1% Glutamax (VWR, Radnor, Pa.), 1% Penicillin-Streptomycin (VWR, Radnor, Pa.), 100 mg/L Hygromycin (Thermo Fisher Scientific, Waltham, Mass. and 5 mg/L Blasticidin (Alfa Aesar, Haverhill, Mass.). Cells were grown and maintained at 37° C. in a humidified environment containing 10% CO2 in air. Cells were detached from the culture flask for passage and harvested using 0.05% Trypsin-EDTA (Thermo Fisher Scientific, Waltham, Mass.). To induce NaV1.7, cells were induced with tetracycline (0.1-1 μg/mL, IBI Scientific, Peosta, Iowa) the day before recording.
Before experiments, cells were washed with DPBS (VWR, Radnor, Pa.), digested with Detachin (VWR Radnor, Pa.) and then triturated 10 times in CHO Serum-Free Media (VWR Radnor, Pa.) to resuspend the cells and to break apart cell aggregates. Cells were counted and the final concentration was set at 2-5 million cells per mL.
The intracellular solution contained the following: 140 mM CsF, 1 mM/5 mM EGTA/CsOH, 10 mM HEPES, 10 mM NaCl, adjusted to pH 7.3 with CsOH, and osmolality to 320 with sucrose. The external solution contained the following: 145 mM NaCl, 4 mM KCl, 1 mM MgCl2, 2 mM CaCl2, 10 mM HEPES, 10 mM Glucose, adjusted to pH 7.4 with CsOH and osmolality to 305 with sucrose. All chemicals are from Sigma-Aldrich, St. Louis, Mo. In order to test the degree of internal block by test compounds, the compounds were dissolved in internal solution at the indicated test concentration. […] In order to test the degree of external block by test compounds the compounds were dissolved in external solution at the indicated test concentration.
Automated Patch Clamps were performed on Qube 384 (Sophion Bioscience, Woburn Mass.) with multihole Qchips at a temperature setting of 22 degrees. The whole cells configuration was formed with default Qube seal and break-in parameter. The membrane potential was held at −100 mV before the voltage protocol began. Two voltage protocols were followed.
Step 1: Cells were held at −100 mV with a depolarized pulse to −20 mV for 10 ms, the interval was set at 5 s. Currents were corrected by default leak subtraction from every pulse. The duration was set at 5 mins.
Step 2: Cells were held at −100 mV with a depolarized pulse to −20 mV for 10 ms. The frequency was 5 Hz. Currents were corrected by leak subtraction calculated before step 2. The duration was set at 4 mins.
After Step 2, the Qchip was removed from the recording chamber. The internal solution was changed with solutions containing test compounds. Qchips were held at −100 mV without pulsing after being replaced in the recording chamber. The total solution switching time was 8 minutes. After the internal solution exchange, Cells were recorded and step 2 for repeated for 10 minutes.
Data analysis was performed by Sophion Analyzer. Cells were filtered with minimum 50 MOhm seal resistance and minimum 5 nA starting current. The rundown of the currents was corrected with control cells (Non-Drug). The remaining was calculated by averaging last 3 points in the end of experiments. The base line was calculated as the average of last 3 points of Step 2. IC50 curves were plotted with DR-plots/Hill function (a dose-response plot with a Hill fit).
Representative examples of the invention were tested for intracellular inhibition of NaV 1.7 in the automated patch clamp assay. Activity Range is reported as IC50: “++++” (<1 μM), “+++” (1-3 μM), “++” (3-10 μM) or “+” (10-30 μM).

[2] = PAMPA membrane permeability assay; format: physicochemical; settings: pH 7.4 buffer, GIT lipid, 4 hours incubation
Protocol: The PAMPA assay (pION, Inc., Woburn Mass.) was used to determine the ability of compounds of the invention to cross an artificial lipid membrane by passive diffusion. Test compounds were dissolved in DMSO (10 mM) and diluted 200-fold in buffer (pION Inc., pH 7.4) to provide 50 uM stock solutions. Buffer (150 μL) was added to a UV blank plate and stock solutions (150 μL) were transferred to a UV reference plate. The blank and reference spectrum were read using a spectrophotometer. Stock solutions (200 μL) were added to the donor plate of the PAMPA sandwich plate and an accept plate painted with GIT lipid (pION Inc, 5 μL) was placed on top. Buffer (200 μL) was added to the acceptor plate and the PAMPA sandwich plate was incubated for 4 hours. Aliquots (150 μL) from the acceptor plate were added to a UV plate and read as acceptor spectrum. Aliquots (150 μL) of the donor solutions were added to a UV analysis plate and read as donor spectrum. The permeability coefficient of test compounds was calculated using PAMPA Explorer™ software (version 3.5.0.4) based on the AUC of the reference plate, the donor plate, and the acceptor plate.
The PAMPA permeability results (10^−6 cm/s) of representative compounds are reported as “+” (<0.1 10^−6 cm/s), “++” (0.1-2.0 10^−6 cm/s), “+++” (2.0-10.010^−6 cm/s) or “++++” (>10.0 10^−6 cm/s).

[3] = molecular target: T1, NaV1.7; test: Whole cell patch clamp, internal block of NaV1.7 current; format: cell-based; settings: % inhibition at 1 μM test concentration, compound in internal solution, manual whole cell patch clamp
Protocol: as §1, with “expressed” for “expressed in HEK293 cells”, “C02” for “CO2”, “recording and plated onto 24-well plates. Cells were washed with DPBS (VWR, Radnor, Pa.), trypsinized and then triturated five times in 10 mL of growth media to break apart cell aggregates. For one 24-well plate, 2 mL of cell suspension was mixed with 23 mL of fresh growth media and 0.1-1 μg/mL tetracycline added. 1 ml of mixed media with cells was then added to each well of a 24-well plate, with a 12 mm coverslip already placed in the bottom of the well. Cells were then incubated in 37° C. and 10% CO2 overnight.” for “recording.”
The intracellular solution contained the following (in mM) CsCl 135, NaCl 10, EGTA 10, HEPES 10, MgCl2 2, adjusted to pH 7.2 with CsOH. The external solution was a normal Ringer solution containing (in mM) NaCl 155, HEPES 10, glucose 10, KCl 3.5, CaCl2 1.5, MgCl2 1 adjusted to pH 7.4 with NaOH. CsCl is from Alfa Aesar, Haverhill, Mass. All other chemicals are from Sigma-Aldrich, St. Louis, Mo. In order to test the degree of internal block by test compounds the compounds were dissolved in internal solution at the indicated test concentration. […] In order to test the degree of external block by test compounds the compounds were dissolved in external solution at the indicated test concentration.
18-24 hours after cells were induced with tetracycline, coverslips were placed into a chamber filled with Normal Ringer solution at room temperature and the chamber placed on a microscope. Pipettes were pulled from borosilicate glass on a P97 puller (Sutter Instrument, Novato, Calif.) and polished with a MF-830 Microforge (Narishige International USA, Inc, Amityville, N.Y.) to have a resistance of 1.5-2.5 MΩ when filled with CsCl internal solution at room temperature. Healthy cells (those that are round and translucent with no visible blemishes) were chosen for seal formation. A seal was formed between the pipette and the cell, and a brief pulse of suction was used to “break in” and establish the whole-cell configuration. The membrane potential was held at −100 mV before the voltage protocol began. Only cells with series resistance between 1.5-5 MΩ were retained for analysis. The voltage protocol was as follows: Cells were held at −100 mV for 12 ms followed by a hyperpolarizing step to −105 mV for 12 ms to monitor the leak. Cells were then stepped back to −100 mV for 40 ms. Cells were then depolarized to −20 mV for 10 ms and then returned to −100 mV for 26 ms (The FIGURE).
Once the recording was started, the voltage protocol was run at 30 second intervals for 5 minutes to get a stable baseline. This was followed by four 30-second periods of 5 Hz stimulation of the same voltage protocol separated by 1 minute of rest which was then followed by 0.33 Hz stimulation after the last train. Currents were recorded using PatchMaster software with Heka EPC10 (HEKA Electronics, Lambrecht, Germany). Only cells with inward current amplitudes at −20 mV between 400 pA and 4 nA were accepted. In addition, cells having leak currents greater than 10% of their current amplitudes were discarded.
The data was plotted using the Patchmaster software (HEKA Electronics, Lambrecht, Germany) and analyzed by plotting the minimum current during the voltage step to −20 mV (peak inward current) as a function of time. […]

T1 sequence (Q15858 whole entry): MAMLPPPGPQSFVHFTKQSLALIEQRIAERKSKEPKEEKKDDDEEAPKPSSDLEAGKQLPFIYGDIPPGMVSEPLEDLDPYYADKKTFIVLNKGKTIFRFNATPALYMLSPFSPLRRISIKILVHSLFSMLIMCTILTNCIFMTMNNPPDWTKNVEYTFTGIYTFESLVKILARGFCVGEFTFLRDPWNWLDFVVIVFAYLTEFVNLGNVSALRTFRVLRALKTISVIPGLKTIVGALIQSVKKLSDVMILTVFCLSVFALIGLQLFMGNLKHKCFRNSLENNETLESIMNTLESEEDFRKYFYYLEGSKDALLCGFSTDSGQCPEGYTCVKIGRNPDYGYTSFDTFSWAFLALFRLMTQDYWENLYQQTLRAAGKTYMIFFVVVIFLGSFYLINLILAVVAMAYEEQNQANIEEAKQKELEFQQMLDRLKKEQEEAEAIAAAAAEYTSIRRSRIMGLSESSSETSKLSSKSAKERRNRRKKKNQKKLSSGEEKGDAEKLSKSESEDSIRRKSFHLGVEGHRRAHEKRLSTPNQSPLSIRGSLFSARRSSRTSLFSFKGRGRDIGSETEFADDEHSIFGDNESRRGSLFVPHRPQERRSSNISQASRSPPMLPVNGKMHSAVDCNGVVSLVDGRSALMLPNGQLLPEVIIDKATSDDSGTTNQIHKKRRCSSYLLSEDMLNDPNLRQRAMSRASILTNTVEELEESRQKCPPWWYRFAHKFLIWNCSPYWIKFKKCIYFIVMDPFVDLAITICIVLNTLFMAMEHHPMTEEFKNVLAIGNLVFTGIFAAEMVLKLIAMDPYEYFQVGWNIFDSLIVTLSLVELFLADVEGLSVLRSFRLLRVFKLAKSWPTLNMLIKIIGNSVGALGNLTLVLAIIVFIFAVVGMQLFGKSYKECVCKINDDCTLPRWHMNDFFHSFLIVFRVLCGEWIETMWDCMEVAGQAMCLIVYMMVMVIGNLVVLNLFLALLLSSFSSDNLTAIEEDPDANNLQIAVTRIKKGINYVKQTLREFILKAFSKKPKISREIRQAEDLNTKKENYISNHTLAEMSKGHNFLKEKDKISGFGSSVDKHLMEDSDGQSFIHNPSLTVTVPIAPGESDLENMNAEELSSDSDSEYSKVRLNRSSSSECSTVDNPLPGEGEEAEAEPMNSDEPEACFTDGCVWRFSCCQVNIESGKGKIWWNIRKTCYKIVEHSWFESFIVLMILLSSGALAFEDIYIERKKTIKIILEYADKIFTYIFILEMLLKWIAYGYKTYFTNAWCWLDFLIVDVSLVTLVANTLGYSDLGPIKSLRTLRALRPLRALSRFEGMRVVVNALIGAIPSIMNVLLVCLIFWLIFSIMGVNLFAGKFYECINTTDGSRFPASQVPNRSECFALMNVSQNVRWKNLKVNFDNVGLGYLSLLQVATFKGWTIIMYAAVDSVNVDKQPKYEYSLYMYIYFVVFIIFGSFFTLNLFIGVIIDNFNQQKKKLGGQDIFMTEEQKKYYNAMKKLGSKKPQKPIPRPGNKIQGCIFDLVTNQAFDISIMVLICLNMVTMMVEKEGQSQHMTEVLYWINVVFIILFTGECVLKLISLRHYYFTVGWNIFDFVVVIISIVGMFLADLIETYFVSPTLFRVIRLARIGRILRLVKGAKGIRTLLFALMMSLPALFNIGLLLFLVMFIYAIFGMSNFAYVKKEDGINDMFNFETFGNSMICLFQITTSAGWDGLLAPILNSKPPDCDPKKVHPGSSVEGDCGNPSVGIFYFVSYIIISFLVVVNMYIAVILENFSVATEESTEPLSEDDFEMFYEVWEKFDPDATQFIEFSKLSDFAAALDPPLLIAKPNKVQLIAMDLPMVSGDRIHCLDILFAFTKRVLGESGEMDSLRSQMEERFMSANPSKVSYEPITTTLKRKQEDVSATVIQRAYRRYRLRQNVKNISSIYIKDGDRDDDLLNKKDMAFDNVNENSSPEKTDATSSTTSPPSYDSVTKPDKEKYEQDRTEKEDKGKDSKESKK

Structure (SMILES) | IC50 [1] [nM] | PAMPA (10^−6 cm/s) [2] | NaV1.7 Intracellular Inhibition [3]
CCCN(CCC)C(=O)C1CCC[N+](CC)(CC(=O)Nc2c(C)cccc2C(=O)OC)C1 (mixture of isomers) [Compound 47] |  | + (<0.1 10^−6 cm/s) | 
CC[N+]1(CC(=O)Nc2c(C)cccc2C(=O)OC)CCCC(C(=O)N2CCCCCC2)C1 (mixture of isomers) [Compound 51] | 1000 to 3000 | + (<0.1 10^−6 cm/s) | 
CC[N+]1(CC(=O)Nc2c(C)cccc2C(=O)OC)CCCC(C(=O)NC2CCCC2)C1 (mixture of isomers) [Compound 52] | 1000 to 3000 | + (<0.1 10^−6 cm/s) | 
CCOC(=O)c1cccc(C)c1NC(=O)C[N+]1(Cc2ccccc2)CCCCCCC1.[Br-] [Compound 10] |  | + (<0.1 10^−6 cm/s) | +++ (90-70%)
CC[N+]1(CC(=O)Nc2c(C)cccc2C(=O)OC)CCCC(C(=O)OC2CCCC2)C1.[I-] (centres unmarked) [Compound 22] | 1000 to 3000 | + (<0.1 10^−6 cm/s) | 
CCOC(=O)C1CCC[N+](CC)(CC(=O)Nc2c(C)cccc2C(=O)OC)C1.[I-] (centres unmarked) [Compound 24] |  | + (<0.1 10^−6 cm/s) | ++ (70-30%)
CC[N+]1(CC(=O)Nc2c(C)cccc2C(=O)OC)CCCC(C(=O)N(C)C)C1.[I-] (centres unmarked) [Compound 44] |  | + (<0.1 10^−6 cm/s) | + (<30%)
CC[N+]1(CC(=O)Nc2c(C)cccc2C(=O)OC)CCCC(C(=O)NCC(C)C)C1.[I-] (centres unmarked) [Compound 48] | 1000 to 3000 | + (<0.1 10^−6 cm/s) | 
CC[N+]1(CC(=O)Nc2c(C)cccc2C(=O)OC)CCCC(C(=O)NC(C)C)C1.[I-] (centres unmarked) [Compound 50] | 1000 to 3000 | + (<0.1 10^−6 cm/s) | 
CCOC(=O)c1cccc(C)c1NC(=O)C[n+]1cccc(C(=O)OC2CCCC2)c1.[Br-] [Compound 68] | 3000 to 10000 | +++ (2.0-10.010^−6 cm/s) | 

More lines, now with the values ahead:

IC50 [1] [nM] | PAMPA (10^−6 cm/s) [2] | NaV1.7 Intracellular Inhibition [3] | Structure (SMILES)
3000 to 10000 | +++ (2.0-10.010^−6 cm/s) |  | COC(=O)c1cccc(C)c1NC(=O)C[N+]1(Cc2ccccc2)CCCC(C(=O)OC2CCCCC2)C1 (mixture of isomers) [Compound 17]
1000 to 3000 | + (<0.1 10^−6 cm/s) |  | CCCOC(=O)C1CCC[N+](CC(=O)Nc2c(C)cccc2C(=O)OC)(Cc2ccccc2)C1 (mixture of isomers) [Compound 18]
1000 to 3000 | + (<0.1 10^−6 cm/s) |  | COC(=O)c1cccc(C)c1NC(=O)C[N+]1(Cc2ccccc2)CCCC(C(=O)OCC(C)C)C1 (mixture of isomers) [Compound 20]
1000 to 3000 | + (<0.1 10^−6 cm/s) |  | COC(=O)c1cccc(C)c1NC(=O)C[N+]1(Cc2ccccc2)CCCC(C(=O)N2CCCCC2)C1 (mixture of isomers) [Compound 37]
1000 to 3000 | + (<0.1 10^−6 cm/s) |  | COC(=O)c1cccc(C)c1NC(=O)C[N+]1(Cc2ccccc2)CCCC(C(=O)NC2CCCCC2)C1 (mixture of isomers) [Compound 42]
< 1000 |  |  | COC(=O)c1cccc(C)c1NC(=O)C[N+]1(Cc2ccccc2)CCCC(C(=O)OC(C)C)C1 (centres unmarked) [Compound 19]
3000 to 10000 | + (<0.1 10^−6 cm/s) |  | COC(=O)c1cccc(C)c1NC(=O)C[N+]1(Cc2ccccc2)CCCC(C(=O)OC2CCCC2)C1.[Br-] (centres unmarked) [Compound 21]
 | + (<0.1 10^−6 cm/s) | ++ (70-30%) | CCN(CC)C(=O)C1CCC[N+](CC(=O)Nc2c(C)cccc2C(=O)OC)(Cc2ccccc2)C1.O=C([O-])C(F)(F)F (centres unmarked) [Compound 38]
 | + (<0.1 10^−6 cm/s) | + (<30%) | CCCN(CCC)C(=O)C1CCC[N+](CC(=O)Nc2c(C)cccc2C(=O)OC)(Cc2ccccc2)C1.[Br-] (centres unmarked) [Compound 39]
1000 to 3000 | + (<0.1 10^−6 cm/s) |  | CCN(CC)C(=O)C1CCC[N+](CC)(CC(=O)Nc2c(C)cccc2C(=O)OC)C1.[I-] (centres unmarked) [Compound 53]
